Experimental data: patent publication US10336792B2, “Antimicrobial peptide dendrimers” (priority 2014, dated 2019)
Converted amounts (≈) assume the structure as drawn. Positions of bridges follow the written chain, without caps; N, C: chain ends. Residues, ends and D or L forms follow the SMILES beside them. Groups on a side chain read outwards from the residue. Chains are numbered I, II in the order given.

Tests used:
[1] = test system: P. aeruginosa PEJ2.6, PEJ9.1, ZEM1.A, ZEM9.A (clinical isolates); assay type: cell-based, Pseudomonas aeruginosa; conditions: PEJ2.6, PEJ9.1, ZEM1.A, ZEM9.A (clinical isolates)
Protocol: (§1) Antimicrobial activity was assayed against P. aeruginosa PA01 (WT), P. aeruginosa PT1482 (A-), PT1485 (A-B-), PT1149 (A-B-C-algC), PT331 (Z61) (LPS mutants), P. aeruginosa PEJ2.6, PEJ9.1, ZEM1.A, ZEM9.A (clinical isolates from Université de Genève/Centre Médical Universitaire), Burkholderia cenocepacia (B. ceno), Staphylococcus aureus (S. aureus, MRSA strain) and Acinetobacter baumannii (A. baum) (clinical isolates from Université de Genève/Centre Médical Universitaire). To determine the minimal inhibitory concentration (MIC), microdilution broth method was used. A colony of bacteria was grown in MH-medium overnight at 37° C. The samples were prepared as stock solutions of 8 mg mL^−1 in H2O, diluted to the beginning concentration of 32, 64, 128 or 256 μg/mL in 300 μL MH-medium, added to the first well of 96-well microtiterplate (TPP, untreated) and diluted serially by ½. The concentration of the bacteria was quantified by measuring absorbance at 600 nm and diluted to OD600=0.022 in MH-medium. The sample solutions (150 μL) were mixed with 4 μL diluted bacterial suspension with a final inoculation of about of 5×10^5 CFU. The plates were incubated at 37° C. until satisfactory growth (˜18 h). For each test, two columns of the plate were kept for sterility control (SC, broth only) and growth control (GC, broth with bacterial inoculums, no antibiotics). The minimal inhibitory concentration (MIC) was defined as the lowest concentration of the antimicrobial substance (peptide dendrimer) that inhibited visible growth of the tested bacteria with the unaided eye. For microbiological study Polymyxin was used as references.
Ten of the most promising compounds (FIG. 5) were tested for their efficiency against four clinical isolates of P. aeruginosa (ZEM9.A, ZEM1.A, PEJ2.6, PEJ9.1), one S. aureus (COL, MRSA reference strain) and one A. baumannii strain. For the experiments in Genève the peptide dendrimers and reference compounds (polymyxin) were dissolved in PBS and the assay was carried out in Müller-Hinton (MH) broth with a two-fold dilution.

[2] = test system: Acinetobacter baumannii; assay type: cell-based
Summary of the method: (§2)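 Broth microdilution in Müller-Hinton medium, two-fold serial dilutions from a starting 32–256 μg/mL, compounds dissolved in PBS; inoculum about 5×10^5 CFU, incubated 37° C ~18 h. MIC taken as lowest concentration with no visible growth by eye; polymyxin as reference.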

[3] = test system: Staphylococcus aureus (COL, MRSA reference strain); assay type: cell-based; conditions: COL, reference strain
Summary of the method: as §2

[4] = test system: Pseudomonas aeruginosa (strain PA01); experiment: microbe, parasite or virus in culture; assay type: cell-based; conditions: strain
Summary of the method: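 Broth microdilution MIC against P. aeruginosa PAO1 in LB: peptides serially diluted by ⅔, bacteria added at OD600 0.001 and incubated 18–24 h at 37 °C. MTT added; MIC is the lowest concentration preventing visible growth.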

[5] = test system: P. aeruginosa PA01 (WT); assay type: cell-based, Pseudomonas aeruginosa; conditions: WT
Protocol: as §1

[6] = test system: P. aeruginosa PT1482 (A-), PT1485 (A-B-), PT1149 (A-B-C-algC), PT331 (Z61) (LPS mutants); assay type: cell-based, Pseudomonas aeruginosa; conditions: MH medium, 12-18 h
Protocol: as §1

[7] = test system: male wistar rats; experiment: In-vivo toxicity study, single i.v. injection; parameters: species or system rat
Description: 4-6 weeks old male wistar rats (weight range 200-500 g) were used in toxicity experiments. Rats were obtained from Zentrale Tierställe Bern (Department of Clinical Research from University of Bern) and housed 4 per cage. Each experimental group includes two rats. All procedures, care and handling of the animals were reviewed and approved by the Veterinärdienst of Kanton Bern, Schweiz and execute in collaboration with the group of Prof. Hugues Abriel from Department of Clinical Research from University of Bern.
Rats were anesthetized with 4% isoflurane and 1 L/min oxygen in an induction chamber. When the rats were sleeping they were transferred on a clinical drape and anesthetized with 1-2% isoflurane and 0.8 l/min oxygen via a mask. The tail was warmed up with warm water and disinfected with 70% ethanol. The intravenous (i.v.) injections into the tail vein included a single dose of the AMPD of 2 mg/kg rat in 500 μL PBS. Before injection each rat was weighted individually and the exact dosage was determined. All rats, including control groups with no injection and i.v. injection of 500 μL PBS, were monitored for their survival and behavior for two days.
The compounds MSt-112, a 3rd generation AMPD with KL motive, MSt-181 its D-enantiomer analogue, MSt-242, a the 3rd generation with RL motive, and MSt-114 with Tyr instead of Lys in the 3rd generation were used for in vivo experiments with male wistar rats to assess their toxicity. These compounds were selected due to their high potencies and high MHCs values, which are at least 10 times higher than their activities. Each compound (concentration of 2 mg/kg) was applied to two rats by intravenous injection into the tail vein to observe if the AMPDs are well tolerated or may cause adverse effects. The concentration used was approx. 5-10 times higher than the MICs. […] The behaviour of the rats was normal. […] Therefore it seems that rats tolerate AMPDs very well, without visible site effects or even casualties.

[8] = test system: Escherichia coli (strain DH5α); assay type: cell-based; conditions: DH5α
Summary of the method: (§3)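 Broth microdilution MIC in LB; overnight cultures diluted to OD600 0.001 and mixed 1:1 with ⅔-serially diluted samples (stock 1 mg mL^−1 in H2O), 37° C for 18-24 h. MTT (0.1%) added; MIC read by eye as lowest concentration inhibiting visible growth (yellow).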

[9] = test system: Bacillus subtilis (strain BR151); assay type: cell-based; conditions: strain BR151
Summary of the method: as §3

CC(C)C[C@H](NC(=O)[C@H](CCCCN)NC(=O)[C@H](CCCCNC(=O)[C@H](CC(C)C)NC(=O)[C@H](CCCCN)NC(=O)[C@H](CCCCNC(=O)[C@H](CC(C)C)NC(=O)[C@H](CCCCN)NC(=O)[C@H](CCCCNC(=O)[C@H](CC(C)C)NC(=O)[C@@H](N)CCCCN)NC(=O)[C@H](CC(C)C)NC(=O)[C@@H](N)CCCCN)NC(=O)[C@H](CC(C)C)NC(=O)[C@H](CCCCN)NC(=O)[C@H](CCCCNC(=O)[C@H](CC(C)C)NC(=O)[C@@H](N)CCCCN)NC(=O)[C@H](CC(C)C)NC(=O)[C@@H](N)CCCCN)NC(=O)[C@H](CC(C)C)NC(=O)[C@H](CCCCN)NC(=O)[C@H](CCCCNC(=O)[C@H](CC(C)C)NC(=O)[C@H](CCCCN)NC(=O)[C@H](CCCCNC(=O)[C@H](CC(C)C)NC(=O)[C@@H](N)CCCCN)NC(=O)[C@H](CC(C)C)NC(=O)[C@@H](N)CCCCN)NC(=O)[C@H](CC(C)C)NC(=O)[C@H](CCCCN)NC(=O)[C@H](CCCCNC(=O)[C@H](CC(C)C)NC(=O)[C@@H](N)CCCCN)NC(=O)[C@H](CC(C)C)NC(=O)[C@@H](N)CCCCN)C(N)=O [MSt-112, (KL)8(KKL)4(KKL)2(KKL)] (I: H-KLK([Leu-Lys])KLKKLKKL-NH2 / II: H-KLK([Leu-Lys])KLKKL / III: H-KLK([Leu-Lys])KL / IV: H-KLK([Leu-Lys])KL; amide I:6-IV:C, I:9-II:C, II:6-III:C)
MIC P. aeruginosa MDR clinical isolate PEJ2.6 [1]: 16 µg/mL (≈ 3.53 µM) | MIC P. aeruginosa MDR clinical isolate PEJ9.1 [1]: 64 µg/mL (≈ 14.1 µM) | MIC P. aeruginosa MDR clinical isolate ZEM1A [1]: 4 µg/mL (≈ 0.882 µM) | MIC P. aeruginosa MDR clinical isolate ZEM9A [1]: 32 to 64 µg/mL | MIC A. baumannii ATCC19606 [2]: 8 to 16 µg/mL | MIC S. aureus COL [3]: >64 µg/mL | MIC P. aeruginosa PAO1 [4]: 2 µg/mL (≈ 0.441 µM) | MIC (MH) [5]: 4 µg/mL (≈ 0.882 µM) | MIC PAO1 [5]: 4 µg/mL (≈ 0.882 µM) | MIC PT1482 (A-) [6]: 4 µg/mL (≈ 0.882 µM) | MIC PT1485 (AB-) [6]: 4 µg/mL (≈ 0.882 µM) | visible effects and behaviour after injection ([7]; 2 mg/kg single i.v. dose into tail vein, two rats): No visible effect | survival rate ([7]; 2 mg/kg single i.v. dose, monitored 2 days): 100% | MIC E. coli DH5α [8]: 4 µg/mL (≈ 0.882 µM) | MIC B. subtilis BR151 [9]: 3 µg/mL (≈ 0.662 µM)
